Measured values as given in patent publication USRE47689E1, “Compounds for treating spinal muscular atrophy” (PTC Therapeutics, Inc., priority 2011, dated 2019).

Key:
[1] = system: SMN2 minigene (full length SMN2 minigene mRNA containing SMN2 exon 7); experiment: SMN2 minigene mRNA splicing RT-qPCR assay in cultured cells; format: cell-based, human; conditions: HEK293H cells stably transfected with SMN2-A minigene, 24 hours, 7-point concentration curve, 1.5-fold relative to vehicle-treated cells; for EC (1.5-fold): Homo sapiens, HEK293-H, read-out: EC1.5x for production of full length SMN2 mRNA
Outline: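 Read-out: full-length (exon 7-included) SMN2 minigene mRNA by multiplex RT-qPCR with GAPDH, efficiency-corrected (1+E)^−Ct, GAPDH-normalized and divided by vehicle. Stably transfected HEK293H cells, 24 h compound exposure, duplicates per concentration. Value is EC1.5x, reported as star ranges.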

Smn protein = Smn protein assay in cultured cells (SMN HTRF); format: cell-based, human; conditions: 48 hours; for maximum fold (Fold) increase of Smn protein: SMA patient fibroblast cells, 7-point concentration data, fold increase relative to vehicle control (SMN HTRF); for EC1.5x (concentration giving 1.5-fold Smn protein increase): SMA Type 1 patient fibroblast cells (GM03813), 7-point concentration curve, SMN HTRF, concentration producing 1.5 times Smn protein vs DMSO vehicle control, read-out: EC1.5x for Smn protein expression
Outline: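 Lysates in RIPA with protease inhibitors are incubated overnight at room temperature with HTRF anti-SMN antibodies. EC1.5x is derived from fold increase in ΔF over vehicle.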

COCCN1CCN(c2ccc3cc(-c4cc5c(C)nc(C)cc5s4)c(=O)oc3c2)CC1 [Compound 820, 3-(4,6-dimethylthieno[3,2-c]pyridin-2-yl)-7-[4-(2-methoxyethyl)piperazin-1-yl]-2H-chromen-2-one]
EC (1.5-fold) [1]: 0.3 to 1 µM | maximum fold (Fold) increase of Smn protein (Smn protein): ** (fold increase between >1.2 and ≤1.35)

Cc1cn2cc(-c3cc4ccc(N5CC[C@@H](CN)C5)cc4oc3=O)nc2c(C)n1 [Compound 964, 7-[(3S)-3-(aminomethyl)pyrrolidin-1-yl]-3-(6,8-dimethylimidazo[1,2-a]pyrazin-2-yl)-2H-chromen-2-one]
EC (1.5-fold) [1]: 0.1 to 0.3 µM | maximum fold (Fold) increase of Smn protein (Smn protein): ** (fold increase between >1.2 and ≤1.35)

COc1ccc(-c2cc3c(F)cc(N4CCN(C)CC4)cc3oc2=O)cc1OC [Compound 405, 3-(3,4-dimethoxyphenyl)-5-fluoro-7-(4-methylpiperazin-1-yl)-2H-chromen-2-one]
EC (1.5-fold) [1]: 3 to 30 µM | maximum fold (Fold) increase of Smn protein (Smn protein): ** (fold increase between >1.2 and ≤1.35)

Cc1cn2cc(-c3cc4ccc(N5CCN(C)CC5)cc4oc3=O)nc2cn1 [Compound 568, 3-(6-methylimidazo[1,2-a]pyrazin-2-yl)-7-(4-methylpiperazin-1-yl)-2H-chromen-2-one]
EC (1.5-fold) [1]: < 0.1 µM | EC1.5x (concentration giving 1.5-fold Smn protein increase) (Smn protein): < 300 nM | maximum fold (Fold) increase of Smn protein (Smn protein): ***** (fold increase >1.65)

Cc1ccn2cc(-c3cc4ccc(N5CCN(C)CC5)cc4oc3=O)nc2n1 [Compound 224, 3-(7-methylimidazo[1,2-a]pyrimidin-2-yl)-7-(4-methylpiperazin-1-yl)-2H-chromen-2-one]
EC (1.5-fold) [1]: 0.3 to 1 µM | maximum fold (Fold) increase of Smn protein (Smn protein): * (maximum fold increase of ≤1.2)

CSc1nccn2cc(-c3cc4ccc(N5CCCN(C)CC5)cc4oc3=O)nc12 [Compound 401, 7-(4-methyl-1,4-diazepan-1-yl)-3-[8-(methylsulfanyl)imidazo[1,2-a]pyrazin-2-yl]-2H-chromen-2-one]
EC (1.5-fold) [1]: 1 to 3 µM | maximum fold (Fold) increase of Smn protein (Smn protein): * (maximum fold increase of ≤1.2)

Cc1cn2cc(-c3cc4ccc(N5CCN[C@@H](C)C5)cc4oc3=O)nc2cn1 [Compound 569, 3-(6-methylimidazo[1,2-a]pyrazin-2-yl)-7-[(3S)-3-methylpiperazin-1-yl]-2H-chromen-2-one]
EC (1.5-fold) [1]: < 0.1 µM | EC1.5x (concentration giving 1.5-fold Smn protein increase) (Smn protein): < 300 nM | maximum fold (Fold) increase of Smn protein (Smn protein): ***** (fold increase >1.65)

O=c1oc2cc(N3CCNCC3)ccc2cc1-c1cn2cc(Cl)ccc2n1 [Compound 71, 3-(6-chloroimidazo[1,2-a]pyridin-2-yl)-7-(piperazin-1-yl)-2H-chromen-2-one]
EC (1.5-fold) [1]: 1 to 3 µM | maximum fold (Fold) increase of Smn protein (Smn protein): ** (fold increase between >1.2 and ≤1.35)

Cc1cn2cc(-c3cc4ccc(N5CC6(CNC6)C5)cc4oc3=O)nc2c(C)n1 [Cpd 971, 7-(2,6-diazaspiro[3.3]hept-2-yl)-3-(6,8-dimethylimidazo[1,2-a]pyrazin-2-yl)-2H-chromen-2-one]
EC (1.5-fold) [1]: < 0.1 µM | EC1.5x (concentration giving 1.5-fold Smn protein increase) (Smn protein): < 300 nM | maximum fold (Fold) increase of Smn protein (Smn protein): ***** (fold increase >1.65)

Cc1nc(Cl)cn2cc(-c3cc4ccc(N5C[C@@H]6C[C@H]5CN6)cc4oc3=O)nc12 [Compound 780, 3-(6-chloro-8-methylimidazo[1,2-a]pyrazin-2-yl)-7-[(1S,4S)-2,5-diazabicyclo[2.2.1]hept-2-yl]-2H-chromen-2-one]
EC (1.5-fold) [1]: < 0.1 µM | EC1.5x (concentration giving 1.5-fold Smn protein increase) (Smn protein): < 300 nM | maximum fold (Fold) increase of Smn protein (Smn protein): **** (fold increase between >1.5 and ≤1.65)

C[C@@H]1CN(c2ccc3cc(-c4cn5ccccc5n4)c(=O)oc3c2)C[C@H](C)N1C [Compound 140, 3-(imidazo[1,2-a]pyridin-2-yl)-7-[(3R,5S)-3,4,5-trimethylpiperazin-1-yl]-2H-chromen-2-one]
EC (1.5-fold) [1]: 0.3 to 1 µM | maximum fold (Fold) increase of Smn protein (Smn protein): ** (fold increase between >1.2 and ≤1.35)

O=c1oc2cc(N3CCNCC3)ccc2cc1-c1cn2ccc(C(F)(F)F)cc2n1 [Compound 114, 7-(piperazin-1-yl)-3-[7-(trifluoromethyl)imidazo[1,2-a]pyridin-2-yl]-2H-chromen-2-one]
EC (1.5-fold) [1]: < 0.1 µM | maximum fold (Fold) increase of Smn protein (Smn protein): ** (fold increase between >1.2 and ≤1.35)

7-(1,4-diazepan-1-yl)-3-(6-methylimidazo[1,2-a]pyrazin-2-yl)-2H-chromen-2-one [Compound 477]
EC1.5x for production of full length SMN2 mRNA [1]: ***** (EC1.5x≤0.1 μM) | EC1.5x (concentration giving 1.5-fold Smn protein increase) (Smn protein): < 300 nM | maximum fold (Fold) increase of Smn protein (Smn protein): ***** (fold increase >1.65)

Cc1cn2cc(-c3cc4ccc(O[C@@H]5CCNC5)cc4oc3=O)nc2c(C)n1 [Compound 601, 3-(6,8-dimethylimidazo[1,2-a]pyrazin-2-yl)-7-[(3R)-pyrrolidin-3-yloxy]-2H-chromen-2-one]
EC (1.5-fold) [1]: < 0.1 µM | EC1.5x (concentration giving 1.5-fold Smn protein increase) (Smn protein): < 300 nM | maximum fold (Fold) increase of Smn protein (Smn protein): ***** (fold increase >1.65)

Cc1cn2cc(-c3cc4ccc(N5CCN[C@@H](C)C5)cc4oc3=O)cc(F)c2n1 [Compound 984, 3-(8-fluoro-2-methylimidazo[1,2-a]pyridin-6-yl)-7-[(3S)-3-methylpiperazin-1-yl]-2H-chromen-2-one]
EC (1.5-fold) [1]: < 0.1 µM | EC1.5x (concentration giving 1.5-fold Smn protein increase) (Smn protein): < 300 nM | maximum fold (Fold) increase of Smn protein (Smn protein): ***** (fold increase >1.65)

CN1CCN(c2ccc3cc(-c4ccc5nccn5c4)c(=O)oc3c2)CC1 [Compound 978, 3-(imidazo[1,2-a]pyridin-6-yl)-7-(4-methylpiperazin-1-yl)-2H-chromen-2-one]
EC (1.5-fold) [1]: 1 to 3 µM | maximum fold (Fold) increase of Smn protein (Smn protein): ** (fold increase between >1.2 and ≤1.35)

CCN1[C@H](C)CN(c2ccc3cc(-c4cn5cc(C)ncc5n4)c(=O)oc3c2)C[C@@H]1C [Compound 797, 7-[(3R,5S)-4-ethyl-3,5-dimethylpiperazin-1-yl]-3-(6-methylimidazo[1,2-a]pyrazin-2-yl)-2H-chromen-2-one]
EC (1.5-fold) [1]: < 0.1 µM | EC1.5x (concentration giving 1.5-fold Smn protein increase) (Smn protein): < 300 nM | maximum fold (Fold) increase of Smn protein (Smn protein): **** (fold increase between >1.5 and ≤1.65)

CCN1CCN(c2ccc3cc(-c4cn5cc(C)nc(C)c5n4)c(=O)oc3c2)C[C@@H]1C(C)C [Compound 810, 3-(6,8-dimethylimidazo[1,2-a]pyrazin-2-yl)-7-[(3S)-4-ethyl-3-(propan-2-yl)piperazin-1-yl]-2H-chromen-2-one]
EC (1.5-fold) [1]: 0.3 to 1 µM | EC1.5x (concentration giving 1.5-fold Smn protein increase) (Smn protein): 1000 to 3000 nM | maximum fold (Fold) increase of Smn protein (Smn protein): **** (fold increase between >1.5 and ≤1.65)

Cc1cn2cc(-c3cc4ccc(N5CCN[C@H](C)C5)cc4oc3=O)cnc2n1 [Compound 650, 3-(2-methylimidazo[1,2-a]pyrimidin-6-yl)-7-[(3R)-3-methylpiperazin-1-yl]-2H-chromen-2-one]
EC (1.5-fold) [1]: < 0.1 µM | EC1.5x (concentration giving 1.5-fold Smn protein increase) (Smn protein): 300 to 1000 nM | maximum fold (Fold) increase of Smn protein (Smn protein): **** (fold increase between >1.5 and ≤1.65)

Cc1cn2cc(-c3cc4ccc(N[C@H]5CCNC5)cc4oc3=O)nc2c(C)n1 [Cpd 563, 3-(6,8-dimethylimidazo[1,2-a]pyrazin-2-yl)-7-[(3S)-pyrrolidin-3-ylamino]-2H-chromen-2-one]
EC (1.5-fold) [1]: < 0.1 µM | EC1.5x (concentration giving 1.5-fold Smn protein increase) (Smn protein): < 300 nM | maximum fold (Fold) increase of Smn protein (Smn protein): ***** (fold increase >1.65)
